Laboratory results: patent US5273985A, “Glycerin derivative and its pharmacological use” (Eisai Co., Ltd., priority 1988, dated 1993)
pIC50: −log10 of the molar value.

How the values were obtained:
[1] = test system: blood pressure drop induced by PAF; test: Action on the blood pressure drop induced by PAF; type: in vivo, F344 rats; details: Rattus norvegicus, iv, 0.05 h, i.v., three minutes after 0.5 μg/kg PAF, ratio of blood pressure rise to drop, read-out: Recovery rate
Protocol: Action on the Blood Pressure Drop Induced by […]
Cannulae were inserted into the carotid and the jugular of each of F344 rats anesthetized with Pento (50 mg/kg, i. p.). The blood pressure was determined at the carotid and 0.5 ml/kg of PAF or the test compound was given through the jugular. Three minutes after the injection of 0.5 μg/kg of PAF, the test compound was given and the antagonism thereof was evaluated.
The recovery rate shown in Table 4 is the ratio of the blood pressure rise by the test compound to the drop thereof.

[2] = test system: platelet agglutination caused by PAF; test: Inhibition of platelet agglutination caused by human PAF (platelet-rich plasma, optical method of Born); type: cell-based; details: PAF at minimum concentration for maximum agglutination, read-out: Agglutination inhibiting activity IC50
Protocol: Effect on the Agglutination Caused by Human PAF
One part by volume of a 3.8% sodium citrate solution was added to 9 parts by volume of blood sampled from the forearm of a healthy adult to whom had been administered no medicine for at least two weeks. A platelet-rich plasma (PRP) was prepared by centrifugation. The inhibition of the platelet agglutination was determined by an optical method of Born et al. with a Hematolaser II® (a platelet agglutination meter of Niko Bioscience Co.). PAF was dissolved in Tyrode solution [Ca^++ (+)] to form a solution having the minimum concentration for causing the maximum agglutination. The test compound was dissolved in a physiological saline.
The agglutination inhibiting activity of the test compound was determined from the rate of inhibition of the maximum light transmittance (maximum agglutination rate) caused by PAF in control PRP. IC50 was determined from the inhibition curve.
The numeral in the column of the Test compound in Table 1 refers to the Example number of the compound.

Human PAF Receptor = molecular target: T1, Human PAF Receptor (Homo sapiens, UniProt P25105); test: Human PAF receptor binding assay (3H-PAF, platelets); details: 3H-PAF 0.6 to 1 nM, 37° C., read-out: PAF receptor antagonism IC50
T1 construct: The platelets were sampled from healthy males by an ordinary method; endogenous in cells; host or cells: human platelets from healthy males (intact platelet suspension)
Protocol: Human PAF Receptor Binding Assay
The platelets were sampled from healthy males by an ordinary method and suspended in a binding buffer [10 mM phosphate-buffered saline (pH 7.0) containing 0.1 w/v % of BSA and 0.9 mM of CaCl2) to form a suspension having a concentration of 10^8 /460 μl. 20 μl of a solution of the test compound in the binding buffer was placed in a polypropylene tube and then 460 μl of the platelet suspension was added thereto. The mixture was subjected to a vortex treatment and then incubated at 37° C. for 6 min. 20 μl of a solution of ^3 H-PAF in the binding buffer (final ^3 H-PAF concentration: 0.6 to 1 nM) was added thereto and the mixture was incubated for 6 min. 3 ml of a washing solution (saline containing 0.1 w/v % of BSA) cooled with ice was added thereto to terminate the reaction. The reaction mixture was filtered by suction through a glass filter (Whatman GF/C). The glass filter was dried and the radioactivity thereof was determined with a liquid scintillation counter.
The inhibition % was calculated according to the following equation and IC50 so was determined by interpolation from the figure. [formula] wherein: total binding: dpm obtained when the concentration of the medicine or PAF is 0,
non-specific binding: dpm obtained when 10^-5 M of cold PAF was added.

[3] = Determination of stability in aqueous solution; type: physicochemical; details: pH 7.4, 37° C., 0.5M sodium phosphate; for half-life: read-out: Half-value period of disappearance due to hydrolysis (t1/2) (converted)
Protocol: Determination of Stability in Aqueous Solution
These compounds were unstable in a neutral or alkaline aqueous solution mainly due to the hydrolysis reaction of the N-acetyl or N-benzoyl group. The relationships between the pH and decomposition rate of several compounds were examined to find that they have the same pattern. The decomposition rate constant under conditions (pH 7.4, 37° C.) where they were relatively easily decomposed was determined and the stabilities of the compounds were compared with one another.
9 parts by volume of a buffer solution (0.5M sodium phosphate, pH 7.4) was added to 1 part by volume of an aqueous sample solution (1 mg/ml) and the mixture was kept at 37° C. The sampling was conducted at appropriate time intervals and the residual rate of an unreacted compound was determined by reversed phase high-performance liquid chromatography. Since the decomposition rate of most of the compounds can be approximately represented by the first-order decomposition rate equation, the decomposition rate constant was determined by the least squares method.

T1 sequence (P25105 whole entry): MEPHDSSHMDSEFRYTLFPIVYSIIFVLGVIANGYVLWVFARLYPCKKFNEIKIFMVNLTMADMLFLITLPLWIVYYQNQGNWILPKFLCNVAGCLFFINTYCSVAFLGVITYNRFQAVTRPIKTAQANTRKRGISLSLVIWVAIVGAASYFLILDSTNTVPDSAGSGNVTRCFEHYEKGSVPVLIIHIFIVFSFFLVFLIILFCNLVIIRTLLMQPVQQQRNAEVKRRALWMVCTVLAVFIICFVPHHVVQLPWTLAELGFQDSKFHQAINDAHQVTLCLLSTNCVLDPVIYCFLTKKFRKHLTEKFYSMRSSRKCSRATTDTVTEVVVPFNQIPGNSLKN

Row | SMILES | pIC50 [2] | pIC50 (Human PAF Receptor) | half-life [3] [h] | Half-value period of disappearance due to hydrolysis (t1/2) [3] | inhibition in vivo at 1 mg/kg [1] [%] | inhibition in vivo at 0.01 mg/kg [1] [%] | inhibition in vivo at 0.1 mg/kg [1] [%]
1 | CC[n+]1ccccc1CN(C(C)=O)C(=O)OCC(COC(=O)Nc1cc(OC)c(OC)c(OC)c1)OC (stereo not drawn) [Example 1, 1-Ethyl-2-[N-acetyl-N-{2-methoxy-3-(3,4,5-trimethoxy)phenylcarbamoyloxypropoxy}carbonyl]aminomethylpyridinium iodide] | 6.42 | – | – | – | 21.7 | – | –
2 | CC[n+]1ccccc1CN(C(=O)OCC(COC(=O)NCC1CCCO1)OC)C(=O)c1ccccc1OC (stereo not drawn) [Example 3, 1-Ethyl-2-[N-(2-methoxy)benzoyl-N-{2-methoxy-3-(2-tetrahydrofuranyl)methyl}carbamoyloxypropoxycarbonyl]aminomethylpyridinium chloride] | 6.51 | 6.52 | – | – | – | – | –
3 | CC[n+]1ccccc1CN(C(=O)OCC(COC(=O)NCCCCCCCCCCNC(=O)N(C)C)OC)C(=O)c1ccccc1OC (stereo not drawn) [Example 5, 1-Ethyl-2-[N-{3-(10-N,N-dimethylcarbamylamino)decylcarbamoyloxy-2-methoxypropyloxy}carbonyl-N-(2-methoxy)benzoyl]aminomethylpyridinium chloride] | 6.68 | 8.72 | – | – | – | – | –
4 | CCCCCCCCCCCCCCCCCCOC(=O)N1CCN(C(=O)OCC(COC(=O)N(Cc2cccc[n+]2CC)C(=O)c2ccccc2OC)OC)CC1 (stereo not drawn) [Example 6, 1-Ethyl-2-[N-(2-methoxy)benzoyl-N-{2-methoxy-3-(4-octadecyloxycarbonyl)piperazylcarbonyloxy}propoxycarbonyl]aminomethylpyridinium chloride] | 6.80 | 9.72 | 28.2 | – | – | 88.5 | –
5 | CCOC(=O)C1CCC(CNC(=O)OCC(COC(=O)N(Cc2cccc[n+]2CC)C(=O)c2ccccc2OC)OC)CC1 (stereo not drawn) [Example 7, 1-Ethyl-2-[N-{3-(4-ethoxycarbonyl)cyclohexylmethyl-carbamoyloxy-2-methoxy}propyloxycarbonyl-N-(2-methoxy)benzoyl]aminomethylpyridinium iodide] | 5.59 | – | – | – | – | – | –
6 | CC[n+]1ccccc1CN(C(=O)OCC(COC(=O)NCCCC(=O)N1CCOCC1)OC)C(=O)c1ccccc1OC (stereo not drawn) [Example 9, 1-Ethyl-2-[N-(2-methoxy)benzoyl-N-{3-(3-morpholinocarbonylpropan-1-yl)carbamoyloxy-2-methoxypropyloxy}carbonyl]aminomethylpyridinium chloride] | 6.59 | 6.10 | – | – | – | – | –
7 | CCCCCOCCCCCOCCCCCNC(=O)OCC(COC(=O)N(Cc1cccc[n+]1CC)C(=O)c1ccccc1OC)OC (stereo not drawn) [Example 10, 1-Ethyl-2-[N-{3-(6,12-dioxaheptadecyl)carbamoyloxy-2-methoxypropyloxy}carbonyl-N-(2-methoxy)benzoyl]aminomethylpyridinium iodide] | 6.52 | 7.80 | – | – | – | 42.5 | 59.6
8 | CC[n+]1ccccc1CN(C(C)=O)C(=O)OCC(COCCc1cc(OC)c(OC)c(OC)c1)OC (stereo not drawn) [Example 16] | 6.42 | 5.46 | – | – | 67.8 | – | –
9 | CC[n+]1ccccc1CN(C(C)=O)C(=O)OCC(COc1cc(OC)c(OC)c(OC)c1)OC (stereo not drawn) [Example 17, 1-ethyl-2-(((N-acetyl-N-((2-methoxy-3-(3,4,5-trimethoxy)phenoxypropyloxy))carbonyl))) aminomethyl pyridium iodide] | 6.47 | 5.46 | – | – | 97.5 | – | –
10 | CC[n+]1ccccc1CN(C(=O)OCC(COCc1cc(OC)c(OCC2CCCCC2)c(OC)c1)OC)C(=O)c1ccccc1OC (stereo not drawn) [Example 20, 1-ethyl-2-(((N-((3-(4-cyclohexylmethoxy-3,5-dimethoxy)benzyloxy-2-methoxy))propyloxycarbonyl-N-(2-methoxy)benzoyl))) aminomethylpyridinium chloride] | 6.60 | 8.04 | – | – | 91.1 | – | –
11 | CC[n+]1ccccc1CN(C(=O)OCC(COCc1cc(OC)c(OC)c(OC)c1)OC)C(=O)N(C)C (stereo not drawn) [Example 22, 1-ethyl-2-(((N-(N,N-dimethyl)carbamyl-N-((2-methoxy-3-(3,4,5-trimethoxy)benzyloxypropyloxy))carbonyl))) aminomethylpyridinium iodide] | – | – | – | infinite | – | – | –
12 | CC[n+]1ccccc1CN1C(=O)CN(CC(COCc2cc(OC)c(OC)c(OC)c2)OC)C1=O (stereo not drawn) [Example 23] | 6.15 | – | 361 | – | – | – | –

Continued, in another order:

Row | pIC50 [2] | pIC50 (Human PAF Receptor) | half-life [3] [h] | Half-value period of disappearance due to hydrolysis (t1/2) [3] | SMILES | inhibition in vivo at 1 mg/kg [1] [%] | inhibition in vivo at 0.01 mg/kg [1] [%] | inhibition in vivo at 0.1 mg/kg [1] [%]
13 | 7.21 | 8.05 | – | – | CC[n+]1ccccc1CN(C(=O)OCC(COC(=O)Nc1ccc2c(c1)Cc1ccccc1-2)OC)C(=O)c1ccccc1OC (stereo not drawn) [Example 2, 1-Ethyl-2-[N-{3-(2-fluoreneamino)carbonyloxy-2-methoxypropyloxy}carbonyl-N-(2-methoxy)benzoyl]aminomethylpyridinium chloride] | – | 79.2 | 97.4
14 | 6.85 | 8.46 | – | – | CCCCCCCCCCCCCCCCCCOCCCNC(=O)OCC(COC(=O)N(Cc1cccc[n+]1CC)C(=O)c1ccccc1OC)OC (stereo not drawn) [Example 4, 1-Ethyl-2-[N-(2-methoxy)benzoyl-N-{2-methoxy-3-(3-octadecyloxy)propylcarbamoyloxy}propoxycarbonyl]-aminomethylpyridinium chloride] | – | – | –
15 | 6.96 | 6.85 | – | – | CC[n+]1ccccc1CN(C(=O)OCC(COC(=O)NCCc1ccc(S(N)(=O)=O)cc1)OC)C(=O)c1ccccc1OC (stereo not drawn) [Example 8, 1-Ethyl-2-[N-(2-methoxy)benzoyl-N-{2-methoxy-3-(2-(4-sulfamoylphenyl)ethylcarbamoyloxy)propyloxy}carbonyl]aminomethylpyridinium iodide] | – | 70.1 | 96.7
16 | 7.07 | 7.60 | – | – | CCCCCCCCCCCCCCCCCC(=O)N1CCN(C(=O)OCC(COC(=O)N(Cc2cccc[n+]2CC)C(=O)c2ccccc2OC)OC)CC1 (stereo not drawn) [Example 11, 1-Ethyl-2-[N-(2-methoxy)benzoyl-N-(2-methoxy-3-(4-stearoylpiperazinocarbonyl)oxypropyloxy}carbonyl]aminomethylpyridinium iodide] | – | – | –
17 | 7.51 | – | – | – | CC[n+]1ccccc1CN(C(=O)OCC(COC(=O)NCc1ccc(S(=O)(=O)NCC2CCCCC2)cc1)OC)C(=O)c1ccccc1OC (stereo not drawn) [Example 12, 1-Ethyl-2-[N-{3(4-cyclohexylmethylsulfamoyl)benzylcarbamoyloxy-2-methoxypromyloxy}carbonyl-N-(2-methoxy)benzoyl]aminomethylpyridinium chloride] | – | – | –
18 | 7.60 | 8.66 | – | – | CC[n+]1ccccc1CN(C(=O)OCC(COCc1ccc(-c2ccccc2)cc1)OC)C(=O)c1ccccc1OC (stereo not drawn) [Example 19, 1-ethyl-2-(((N-((3-(4-biphenylmethyloxy-2-methoxypropyloxy))carbonyl-N-(2-methoxy)benzoyl)))aminomethylpyridinium chloride] | 74.9 | – | –
